In the NIST ThermoML archive (doi:10.1021/acs.jced.9b00396):

Conditions: Liquid; for speed of sound: Frequency=3 MHz, Single path-length method; for mass density: Vibrating tube method

C[S+](C)[O-] [dimethyl sulfoxide]
Conditions | mass density [kg/m3] | speed of sound [m/s]
293.15 K, 100 kPa | 1100.4 | 1502
293.15 K, 500 kPa | 1100 | –
293.15 K, 1000 kPa | 1101 | –
293.15 K, 2500 kPa | 1102 | –
293.15 K, 5000 kPa | 1103 | –
293.15 K, 7500 kPa | 1104 | –
293.15 K, 10000 kPa | 1106 | –
293.15 K, 12500 kPa | 1107 | –
293.15 K, 15000 kPa | 1108 | –
293.15 K, 17500 kPa | 1110 | –
293.15 K, 20000 kPa | 1111 | –
293.15 K, 22500 kPa | 1112 | –
293.15 K, 25000 kPa | 1114 | –
293.15 K, 27500 kPa | 1115 | –
293.15 K, 30000 kPa | 1116 | –
293.15 K, 32500 kPa | 1117 | –
293.15 K, 35000 kPa | 1119 | –
293.15 K, 37500 kPa | 1120 | –
298.15 K, 100 kPa | 1095.4 | 1485
298.15 K, 500 kPa | 1095 | –
298.15 K, 1000 kPa | 1096 | –
298.15 K, 2500 kPa | 1096 | –
298.15 K, 5000 kPa | 1098 | –
298.15 K, 7500 kPa | 1099 | –
298.15 K, 10000 kPa | 1101 | –
298.15 K, 12500 kPa | 1102 | –
298.15 K, 15000 kPa | 1103 | –
298.15 K, 17500 kPa | 1105 | –
298.15 K, 20000 kPa | 1106 | –
298.15 K, 22500 kPa | 1107 | –
298.15 K, 25000 kPa | 1109 | –
298.15 K, 27500 kPa | 1110 | –
298.15 K, 30000 kPa | 1111 | –
298.15 K, 32500 kPa | 1113 | –
298.15 K, 35000 kPa | 1114 | –
298.15 K, 37500 kPa | 1115 | –
313.15 K, 100 kPa | 1080.3 | 1435
313.15 K, 500 kPa | 1080 | –
313.15 K, 1000 kPa | 1080 | –
313.15 K, 2500 kPa | 1081 | –
313.15 K, 5000 kPa | 1083 | –
313.15 K, 7500 kPa | 1084 | –
313.15 K, 10000 kPa | 1086 | –
313.15 K, 12500 kPa | 1087 | –
313.15 K, 15000 kPa | 1089 | –
313.15 K, 17500 kPa | 1090 | –
313.15 K, 20000 kPa | 1092 | –
313.15 K, 22500 kPa | 1093 | –
313.15 K, 25000 kPa | 1095 | –
313.15 K, 27500 kPa | 1096 | –
313.15 K, 30000 kPa | 1097 | –
313.15 K, 32500 kPa | 1099 | –
313.15 K, 35000 kPa | 1100 | –
313.15 K, 37500 kPa | 1101 | –
333.15 K, 100 kPa | 1060.2 | 1368
333.15 K, 500 kPa | 1060 | –
333.15 K, 1000 kPa | 1060 | –
333.15 K, 2500 kPa | 1061 | –
333.15 K, 5000 kPa | 1063 | –
333.15 K, 7500 kPa | 1065 | –
333.15 K, 10000 kPa | 1066 | –
333.15 K, 12500 kPa | 1068 | –
333.15 K, 15000 kPa | 1070 | –
333.15 K, 17500 kPa | 1071 | –
333.15 K, 20000 kPa | 1073 | –
333.15 K, 22500 kPa | 1074 | –
333.15 K, 25000 kPa | 1076 | –
333.15 K, 27500 kPa | 1077 | –
333.15 K, 30000 kPa | 1079 | –
333.15 K, 32500 kPa | 1080 | –
333.15 K, 35000 kPa | 1082 | –
333.15 K, 37500 kPa | 1083 | –
353.15 K, 500 kPa | 1040 | –
353.15 K, 1000 kPa | 1040 | –
353.15 K, 2500 kPa | 1042 | –
353.15 K, 5000 kPa | 1043 | –
353.15 K, 7500 kPa | 1045 | –
353.15 K, 10000 kPa | 1047 | –
353.15 K, 12500 kPa | 1049 | –
353.15 K, 15000 kPa | 1050 | –
353.15 K, 17500 kPa | 1052 | –
353.15 K, 20000 kPa | 1054 | –
353.15 K, 22500 kPa | 1055 | –
353.15 K, 25000 kPa | 1057 | –
353.15 K, 27500 kPa | 1059 | –
353.15 K, 30000 kPa | 1060 | –
353.15 K, 32500 kPa | 1062 | –
353.15 K, 35000 kPa | 1063 | –
353.15 K, 37500 kPa | 1065 | –
373.15 K, 500 kPa | 1020 | –
373.15 K, 1000 kPa | 1020 | –
373.15 K, 2500 kPa | 1022 | –
373.15 K, 5000 kPa | 1024 | –
373.15 K, 7500 kPa | 1026 | –
373.15 K, 10000 kPa | 1027 | –
373.15 K, 12500 kPa | 1029 | –
373.15 K, 15000 kPa | 1031 | –
373.15 K, 17500 kPa | 1033 | –
373.15 K, 20000 kPa | 1035 | –
373.15 K, 22500 kPa | 1037 | –
373.15 K, 25000 kPa | 1038 | –
373.15 K, 27500 kPa | 1040 | –
373.15 K, 30000 kPa | 1042 | –
373.15 K, 32500 kPa | 1044 | –
373.15 K, 35000 kPa | 1045 | –
373.15 K, 37500 kPa | 1047 | –
393.15 K, 500 kPa | 999 | –
393.15 K, 1000 kPa | 1000 | –
393.15 K, 2500 kPa | 1001 | –
393.15 K, 5000 kPa | 1004 | –
393.15 K, 7500 kPa | 1006 | –
393.15 K, 10000 kPa | 1008 | –
393.15 K, 12500 kPa | 1010 | –
393.15 K, 15000 kPa | 1012 | –
393.15 K, 17500 kPa | 1014 | –
393.15 K, 20000 kPa | 1016 | –
393.15 K, 22500 kPa | 1018 | –
393.15 K, 25000 kPa | 1020 | –
393.15 K, 27500 kPa | 1022 | –
393.15 K, 30000 kPa | 1024 | –
393.15 K, 32500 kPa | 1025 | –
393.15 K, 35000 kPa | 1027 | –
393.15 K, 37500 kPa | 1029 | –
413.15 K, 500 kPa | 979 | –
413.15 K, 1000 kPa | 979 | –
413.15 K, 2500 kPa | 981 | –
413.15 K, 5000 kPa | 983 | –
413.15 K, 7500 kPa | 986 | –
413.15 K, 10000 kPa | 988 | –
413.15 K, 12500 kPa | 990 | –
413.15 K, 15000 kPa | 993 | –
413.15 K, 17500 kPa | 995 | –
413.15 K, 20000 kPa | 997 | –
413.15 K, 22500 kPa | 999 | –
413.15 K, 25000 kPa | 1001 | –
413.15 K, 27500 kPa | 1003 | –
413.15 K, 30000 kPa | 1005 | –
413.15 K, 32500 kPa | 1007 | –
413.15 K, 35000 kPa | 1009 | –
413.15 K, 37500 kPa | 1011 | –
433.15 K, 500 kPa | 958 | –
433.15 K, 1000 kPa | 958 | –
433.15 K, 2500 kPa | 960 | –
433.15 K, 5000 kPa | 963 | –
433.15 K, 7500 kPa | 966 | –
433.15 K, 10000 kPa | 968 | –
433.15 K, 12500 kPa | 971 | –
433.15 K, 15000 kPa | 973 | –
433.15 K, 17500 kPa | 976 | –
433.15 K, 20000 kPa | 978 | –
433.15 K, 22500 kPa | 980 | –
433.15 K, 25000 kPa | 983 | –
433.15 K, 27500 kPa | 985 | –
433.15 K, 30000 kPa | 987 | –
433.15 K, 32500 kPa | 989 | –
433.15 K, 35000 kPa | 991 | –
433.15 K, 37500 kPa | 993 | –
453.15 K, 500 kPa | 936 | –
453.15 K, 1000 kPa | 937 | –
453.15 K, 2500 kPa | 939 | –
453.15 K, 5000 kPa | 942 | –
453.15 K, 7500 kPa | 945 | –
453.15 K, 10000 kPa | 948 | –
453.15 K, 12500 kPa | 951 | –
453.15 K, 15000 kPa | 953 | –
453.15 K, 17500 kPa | 956 | –
453.15 K, 20000 kPa | 959 | –
453.15 K, 22500 kPa | 961 | –
453.15 K, 25000 kPa | 964 | –
453.15 K, 27500 kPa | 966 | –
453.15 K, 30000 kPa | 969 | –
453.15 K, 32500 kPa | 971 | –
453.15 K, 35000 kPa | 973 | –
453.15 K, 37500 kPa | 976 | –
473.15 K, 500 kPa | 914 | –
473.15 K, 1000 kPa | 915 | –
473.15 K, 2500 kPa | 917 | –
473.15 K, 5000 kPa | 921 | –
473.15 K, 7500 kPa | 924 | –
473.15 K, 10000 kPa | 927 | –
473.15 K, 12500 kPa | 930 | –
473.15 K, 15000 kPa | 933 | –
473.15 K, 17500 kPa | 936 | –
473.15 K, 20000 kPa | 939 | –
473.15 K, 22500 kPa | 942 | –
473.15 K, 25000 kPa | 945 | –
473.15 K, 27500 kPa | 948 | –
473.15 K, 30000 kPa | 950 | –
473.15 K, 32500 kPa | 953 | –
473.15 K, 35000 kPa | 955 | –
473.15 K, 37500 kPa | 958 | –
